In ChEMBL document CHEMBL1201862, “PubChem BioAssay data set” (2004):
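1) Cells in 96-well plates. 2) Compound, 48 h, 5 concentrations. 3) Linear interpolation between surrounding doses. 4) Unreached endpoint = highest concentration. Abbreviation: GI50, concentration required for 50% inhibition of growth.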 Active and inactive are the calls of the source. Cut-off read from the data, not from the text of the source: active = GI50 up to about 1.1 µM and inactive = higher.

Tests used:
Assay in all cases: NCI anticancer screen, dose series, 48 h
[1] = test system: 786-0
[2] = test system: A498
[3] = test system: A549
[4] = test system: EKVX
[5] = test system: HCT-15
[6] = test system: HL-60
[7] = test system: HOP-92
[8] = test system: M14
[9] = test system: MDA-MB-231
[10] = test system: OVCAR-8
[11] = test system: PC-3
[12] = test system: SF-268
[13] = test system: SF-295
[14] = test system: SF-539
[15] = test system: SK-MEL-28
[16] = test system: SW-620
[17] = test system: UACC-257
[18] = test system: CCRF-CEM
[19] = test system: SK-OV-3
[20] = test system: NCI-H226

For `CCOC(=O)C1C(c2ccc(OC)cc2)c2c(nn(-c3ccccc3)c2O)CC1(O)OCC` (centres undefined), the GI50 [1] was 63.4 µM (inactive), the GI50 [2] was > 100 µM (inactive) and the GI50 [3] was 24 µM (inactive). The GI50 [4] was 98.9 µM (inactive), the GI50 [5] was 77.4 µM and the GI50 [6] was 0.47 µM (active). For the same molecule, the GI50 [7] was > 100 µM (inactive), the GI50 [8] was 19.7 µM (inactive) and the GI50 [9] was 39.9 µM (inactive). For the same molecule, the GI50 [10] was > 100 µM (inactive), the GI50 [11] was 9.31 µM (inactive) and the GI50 [12] was > 100 µM (inactive). For the same molecule, the GI50 [13] was 1.92 µM (inactive), the GI50 [14] was > 100 µM (inactive) and the GI50 [15] was > 100 µM (inactive). The GI50 [16] was 27.5 µM (inactive) and the GI50 [17] was 44.6 µM (inactive).

`CCN(CC)CCCNc1nnc(C)c2[nH]c3ccccc3c12` was tested, and the GI50 [1] was 18.2 µM (inactive), the GI50 [2] was 17.2 µM (inactive) and the GI50 [3] was 17.8 µM (inactive). For the same molecule, the GI50 [18] was 4.42 µM (inactive), the GI50 [4] was 18.7 µM (inactive) and the GI50 [5] was greater than 100 µM. For the same molecule, the GI50 [6] was 3.28 µM (inactive), the GI50 [7] was 6.9 µM (inactive) and the GI50 [8] was 16 µM (inactive). The GI50 [9] was 11.4 µM (inactive), the GI50 [10] was 7.93 µM (inactive) and the GI50 [11] was 12.1 µM (inactive). The GI50 [12] was 8.73 µM (inactive), the GI50 [13] was 20.8 µM (inactive) and the GI50 [14] was 2.28 µM (inactive). For the same molecule, the GI50 [15] was 18.7 µM (inactive), the GI50 [19] was 11 µM (inactive) and the GI50 [16] was 9.2 µM (inactive). For the same molecule, the GI50 [17] was 15.1 µM (inactive).

In the case of `OCC1OC(n2cnc3c2NC=NC[C@H]3O)CC1O` (some centres undefined), the GI50 [1] is reported as 455 µM (inactive), the GI50 [2] is reported as 422 µM (inactive) and the GI50 [18] is reported as 392 µM (inactive). The GI50 [4] was 489 µM (inactive), the GI50 [5] was greater than 500 µM and the GI50 [6] was 417 µM (inactive). For the same molecule, the GI50 [7] was 398 µM (inactive), the GI50 [8] was 418 µM (inactive) and the GI50 [9] was > 500 µM (inactive). For the same molecule, the GI50 [20] was 484 µM (inactive), the GI50 [10] was 489 µM (inactive) and the GI50 [11] was > 500 µM (inactive). For the same molecule, the GI50 [12] was 472 µM (inactive), the GI50 [13] was 448 µM (inactive) and the GI50 [15] was 493 µM (inactive). The GI50 [19] was 467 µM (inactive) and the GI50 [17] was 407 µM (inactive).

In the case of `COc1cc2nc(-c3cccs3)nc(N3C(c4cc(OC)c(OC)c(OC)c4)=NNC(=O)c4ccccc43)c2cc1OC`, the GI50 [1] is reported as 35.6 µM (inactive), the GI50 [2] is reported as > 100 µM (inactive) and the GI50 [3] is reported as 31.1 µM (inactive). For the same molecule, the GI50 [4] was 30.8 µM (inactive), the GI50 [5] was 13.5 µM and the GI50 [6] was 54.7 µM (inactive). For the same molecule, the GI50 [7] was 78.5 µM (inactive), the GI50 [8] was 15.3 µM (inactive) and the GI50 [9] was 16.7 µM (inactive). The GI50 [20] was > 100 µM (inactive), the GI50 [10] was 3.4 µM (inactive) and the GI50 [11] was 29.6 µM (inactive). For the same molecule, the GI50 [12] was 12 µM (inactive), the GI50 [13] was 17.9 µM (inactive) and the GI50 [14] was 21.8 µM (inactive). For the same molecule, the GI50 [15] was 21.9 µM (inactive), the GI50 [19] was 71.1 µM (inactive) and the GI50 [17] was 35.3 µM (inactive).

`Cc1ccc(S(=O)(=O)N/N=C2\C=CC3(CC2)C(=O)N(I)c2ccccc23)cc1` (centres undefined) was tested, and the GI50 [1] was > 100 µM (inactive), the GI50 [2] was > 100 µM (inactive) and the GI50 [3] was > 100 µM (inactive). For the same molecule, the GI50 [18] was 75 µM (inactive), the GI50 [4] was > 100 µM (inactive) and the GI50 [5] was greater than 100 µM. The GI50 [7] was 89.7 µM (inactive), the GI50 [8] was > 100 µM (inactive) and the GI50 [9] was 58.7 µM (inactive). For the same molecule, the GI50 [20] was > 100 µM (inactive), the GI50 [10] was > 100 µM (inactive) and the GI50 [11] was 63.1 µM (inactive). For the same molecule, the GI50 [12] was 90.6 µM (inactive), the GI50 [13] was 41.5 µM (inactive) and the GI50 [14] was 11 µM (inactive). The GI50 [15] was > 100 µM (inactive), the GI50 [19] was > 100 µM (inactive) and the GI50 [16] was > 100 µM (inactive). The GI50 [17] was > 100 µM (inactive).

With `CCOC(=O)C1C(O)CC2c3ccccc3-c3ccccc3C21` (centres undefined) the GI50 [1] was 30.4 µM (inactive), the GI50 [2] was 20.2 µM (inactive) and the GI50 [3] was 44.9 µM (inactive). The GI50 [18] was 8.85 µM (inactive), the GI50 [4] was > 100 µM (inactive) and the GI50 [5] was greater than 100 µM. For the same molecule, the GI50 [6] was > 100 µM (inactive), the GI50 [7] was 20.1 µM (inactive) and the GI50 [8] was > 100 µM (inactive). The GI50 [9] was 25.9 µM (inactive), the GI50 [20] was 3.2 µM (inactive) and the GI50 [10] was 21.5 µM (inactive). For the same molecule, the GI50 [11] was > 100 µM (inactive), the GI50 [12] was 31.4 µM (inactive) and the GI50 [13] was 43.7 µM (inactive). The GI50 [15] was > 100 µM (inactive), the GI50 [19] was 21.2 µM (inactive) and the GI50 [16] was 48.4 µM (inactive). For the same molecule, the GI50 [17] was > 100 µM (inactive).
